Source: BindingDB's records for doi:10.1021/jm00195a008 (1979)

Molecular target: DNA-directed RNA polymerase subunit alpha/beta/beta'/omega (Escherichia coli (strain K12), UniProt P0A7Z4+P0A800+P0A8T7+P0A8V2)
Test: Inhibition of Escherichia coli DNA-dependent RNA polymerase

Chain of DNA-directed RNA polymerase subunit alpha/beta/beta'/omega (P0A8V2 whole entry): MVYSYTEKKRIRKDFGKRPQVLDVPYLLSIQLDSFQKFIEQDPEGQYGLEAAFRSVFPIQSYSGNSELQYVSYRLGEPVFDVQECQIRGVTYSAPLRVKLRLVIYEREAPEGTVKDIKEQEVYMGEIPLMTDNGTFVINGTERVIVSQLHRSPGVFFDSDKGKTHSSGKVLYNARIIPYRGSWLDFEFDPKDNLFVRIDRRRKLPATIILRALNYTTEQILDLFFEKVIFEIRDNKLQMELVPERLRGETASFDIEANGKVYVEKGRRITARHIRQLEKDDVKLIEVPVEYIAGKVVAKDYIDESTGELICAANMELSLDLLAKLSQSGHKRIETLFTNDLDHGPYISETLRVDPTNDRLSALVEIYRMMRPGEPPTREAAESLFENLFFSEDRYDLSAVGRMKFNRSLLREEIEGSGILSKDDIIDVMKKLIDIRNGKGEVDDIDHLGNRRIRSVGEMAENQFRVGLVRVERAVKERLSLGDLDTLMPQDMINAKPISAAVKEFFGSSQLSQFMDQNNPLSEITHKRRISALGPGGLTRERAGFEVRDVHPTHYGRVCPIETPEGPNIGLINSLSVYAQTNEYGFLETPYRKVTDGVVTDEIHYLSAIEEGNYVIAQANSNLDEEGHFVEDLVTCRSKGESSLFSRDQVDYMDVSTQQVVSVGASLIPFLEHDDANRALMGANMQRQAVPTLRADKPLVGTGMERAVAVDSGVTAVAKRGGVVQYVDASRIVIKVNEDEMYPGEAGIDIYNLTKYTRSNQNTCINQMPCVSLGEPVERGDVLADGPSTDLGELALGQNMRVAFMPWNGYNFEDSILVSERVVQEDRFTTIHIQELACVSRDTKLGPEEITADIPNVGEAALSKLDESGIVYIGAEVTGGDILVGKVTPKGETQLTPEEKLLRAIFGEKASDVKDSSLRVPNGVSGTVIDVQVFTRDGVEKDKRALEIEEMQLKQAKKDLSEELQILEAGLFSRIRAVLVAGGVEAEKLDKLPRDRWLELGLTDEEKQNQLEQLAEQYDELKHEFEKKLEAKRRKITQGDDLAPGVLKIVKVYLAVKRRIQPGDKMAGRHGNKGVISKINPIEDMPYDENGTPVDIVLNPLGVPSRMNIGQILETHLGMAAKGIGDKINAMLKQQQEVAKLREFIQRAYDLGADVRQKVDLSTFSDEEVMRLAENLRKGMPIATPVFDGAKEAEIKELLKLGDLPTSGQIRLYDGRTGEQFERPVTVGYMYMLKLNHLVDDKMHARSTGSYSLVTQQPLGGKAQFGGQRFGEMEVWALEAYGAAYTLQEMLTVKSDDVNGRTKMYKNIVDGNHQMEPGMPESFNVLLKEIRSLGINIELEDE
Chain of DNA-directed RNA polymerase subunit alpha/beta/beta'/omega (P0A7Z4 whole entry): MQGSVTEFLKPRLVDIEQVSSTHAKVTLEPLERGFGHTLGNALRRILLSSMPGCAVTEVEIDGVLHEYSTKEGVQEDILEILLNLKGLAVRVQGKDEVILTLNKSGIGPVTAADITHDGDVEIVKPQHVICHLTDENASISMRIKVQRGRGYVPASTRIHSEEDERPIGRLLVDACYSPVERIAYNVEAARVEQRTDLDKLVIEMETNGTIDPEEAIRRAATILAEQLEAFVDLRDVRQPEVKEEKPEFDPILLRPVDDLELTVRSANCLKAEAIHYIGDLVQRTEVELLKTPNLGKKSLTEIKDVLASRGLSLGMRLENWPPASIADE
Chain of DNA-directed RNA polymerase subunit alpha/beta/beta'/omega (P0A8T7 whole entry): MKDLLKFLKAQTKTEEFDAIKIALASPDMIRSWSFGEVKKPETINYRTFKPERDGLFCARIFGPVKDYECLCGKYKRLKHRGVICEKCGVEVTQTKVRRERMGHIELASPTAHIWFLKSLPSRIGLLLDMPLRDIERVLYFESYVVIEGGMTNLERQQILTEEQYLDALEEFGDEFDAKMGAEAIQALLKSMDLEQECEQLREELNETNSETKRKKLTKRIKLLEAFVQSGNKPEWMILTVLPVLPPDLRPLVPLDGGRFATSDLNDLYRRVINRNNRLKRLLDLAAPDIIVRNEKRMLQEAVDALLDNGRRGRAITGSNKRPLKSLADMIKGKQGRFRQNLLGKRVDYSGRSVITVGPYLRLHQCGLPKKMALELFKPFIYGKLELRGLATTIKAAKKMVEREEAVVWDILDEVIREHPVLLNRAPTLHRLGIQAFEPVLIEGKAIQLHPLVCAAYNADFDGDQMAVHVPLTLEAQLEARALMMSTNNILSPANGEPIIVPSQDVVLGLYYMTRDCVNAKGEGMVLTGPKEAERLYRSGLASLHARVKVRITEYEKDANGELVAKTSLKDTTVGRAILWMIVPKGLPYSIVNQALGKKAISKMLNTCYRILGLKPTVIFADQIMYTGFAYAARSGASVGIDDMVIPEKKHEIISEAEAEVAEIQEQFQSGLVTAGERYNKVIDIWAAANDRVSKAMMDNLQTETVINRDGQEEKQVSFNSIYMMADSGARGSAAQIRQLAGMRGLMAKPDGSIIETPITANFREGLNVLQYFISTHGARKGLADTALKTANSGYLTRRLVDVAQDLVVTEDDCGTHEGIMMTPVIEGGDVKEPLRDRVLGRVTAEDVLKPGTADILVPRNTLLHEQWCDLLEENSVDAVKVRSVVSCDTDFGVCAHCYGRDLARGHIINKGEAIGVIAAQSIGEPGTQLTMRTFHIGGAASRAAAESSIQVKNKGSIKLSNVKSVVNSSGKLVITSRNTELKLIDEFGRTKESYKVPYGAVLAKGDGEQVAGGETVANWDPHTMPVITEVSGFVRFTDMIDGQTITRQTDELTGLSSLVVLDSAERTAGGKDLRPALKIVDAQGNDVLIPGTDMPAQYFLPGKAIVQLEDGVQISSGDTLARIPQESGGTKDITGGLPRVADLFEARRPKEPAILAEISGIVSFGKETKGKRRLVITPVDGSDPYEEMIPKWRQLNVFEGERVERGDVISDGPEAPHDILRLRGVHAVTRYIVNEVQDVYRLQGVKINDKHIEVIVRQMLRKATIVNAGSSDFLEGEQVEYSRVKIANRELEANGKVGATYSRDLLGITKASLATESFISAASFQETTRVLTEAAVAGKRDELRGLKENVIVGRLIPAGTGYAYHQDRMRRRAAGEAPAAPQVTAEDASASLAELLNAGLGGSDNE
Chain of DNA-directed RNA polymerase subunit alpha/beta/beta'/omega (P0A800 whole entry): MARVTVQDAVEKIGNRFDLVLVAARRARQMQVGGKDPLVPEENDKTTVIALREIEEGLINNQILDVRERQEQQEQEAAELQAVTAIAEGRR

## Cc1c2oc3c(C)ccc(C(=O)N[C@@H]4C(=O)N[C@H](C(C)C)C(=O)N5CCC[C@H]5C(=O)N(C)CC(=O)N(C)[C@@H](C(C)C)C(=O)O[C@@H]4C)c3nc-2c(C(=O)N[C@@H]2C(=O)N[C@H](C(C)C)C(=O)N3CCC[C@H]3C(=O)N(C)CC(=O)N(C)[C@@H](C(C)C)C(=O)O[C@@H]2C)c(NC2CC(C)(C)[N+]([O-])C(C)(C)C2)c1=O
  IC50: 2.8 µM
